Test results published in US3985740A, “7-[D-(α-amino-α-phenyl-, 2-thienyl- and 3-thienylacetamido)]-3-(5-methylthiazol-2-yl)carbonylthiomethyl-3-cephem -4-carboxylic acids” (Bristol-Myers Company, priority 1974, dated 1976).
Values after ≈ are worked out from the molar mass of the structure shown. Like-named read-outs stand apart in the source and are kept apart here.

Columns and labels:
S. aureus A9748 = assay: M.I.C. by tube dilution; assay type: cell-based; conditions: Staphylococcus aureus, overnight 37° C., read-out: M.I.C.
K. pneumoniae A15130 = assay: M.I.C. by tube dilution; assay type: cell-based; conditions: Klebsiella pneumoniae, A15130; at 10^-^4 dilution; overnight 37° C.; read-out: M.I.C.
Ps. aeruginosa A9843A = assay: M.I.C. by tube dilution; assay type: cell-based; conditions: Pseudomonas aeruginosa
[1] = test system: S. aureus BX 1633-2 A9606; assay: M.I.C. by tube dilution; assay type: cell-based; conditions: Staphylococcus aureus, overnight 37° C., read-out: M.I.C.
Pr. morganii A15153 = assay: M.I.C. by tube dilution; assay type: cell-based; conditions: Morganella morganii, at 10^-^4 dilution, overnight 37° C., read-out: M.I.C.
D. pneumoniae A9585 = assay: M.I.C. by tube dilution; assay type: cell-based; conditions: Streptococcus pneumoniae, D. pneumoniae + 5% serum, 50% Nutrient Broth - 45% Antibiotic Assay Broth, overnight 37° C.
Ser. marcescens A20019 = assay: M.I.C. by tube dilution; assay type: cell-based; conditions: Serratia marcescens
Str. pyogenes A9604 = assay: M.I.C. by tube dilution; assay type: cell-based; conditions: Streptococcus pyogenes, Str. pyogenes + 5% serum, 50% Nutrient Broth - 45% Antibiotic Assay Broth, overnight 37° C.
E. coli A9675 = assay: M.I.C. by tube dilution; assay type: cell-based; conditions: Escherichia coli, A9675; at 10^-^4 dilution; overnight 37° C.; read-out: M.I.C.
S. aureus Smith A9537 = assay: M.I.C. by tube dilution; assay type: cell-based; conditions: Staphylococcus aureus, overnight 37° C., read-out: M.I.C.
[2] = Blood levels in the mouse after oral administration; assay type: in vivo
Method: Blood levels in the mouse after oral administration were
determined with the following results:

Sal. enteritidis A9531 = assay: M.I.C. by tube dilution; assay type: cell-based; conditions: Salmonella enterica, ENTERITIDIS; at 10^-^4 dilution; overnight 37° C.; read-out: M.I.C.
[3] = test system: certain important pathogenic organisms; assay: In vitro activity in the primary screening tests (overall); assay type: cell-based; conditions: in words
From the text: This combination of good oral absorption and high antibacterial activity in a cephalosporin while highly desirable is quite uncommon in compounds reported to date. […] To illustrate the unpredictability of oral absorption and antibacterial activity in a closely related series of cephalosporin compounds, Tables 1-8 below compare in vitro activities and oral absorption as tested in the mouse of the compounds of the formula ##SPC12##

K. pneumoniae A9977 = assay: M.I.C. by tube dilution; assay type: cell-based; conditions: Klebsiella pneumoniae, A9977; at 10^-^4 dilution; overnight 37° C.; read-out: M.I.C.
[4] = test system: S. aureus methicillin-resistant A15097; assay: M.I.C. by tube dilution; assay type: cell-based; conditions: Staphylococcus aureus, at 10^-^3 dilution, overnight 37° C.
Pr. mirabilis A9900 = assay: M.I.C. by tube dilution; assay type: cell-based; conditions: Proteus mirabilis, A9900; at 10^-^4 dilution; overnight 37° C.; read-out: M.I.C.
E. coli Juhl A15119 = assay: M.I.C. by tube dilution; assay type: cell-based; conditions: Escherichia coli, JUHLA15119

Cc1cnc(C(=O)SCC2=C(C(=O)O)N3C(=O)C(NC(=O)[C@H](N)c4ccccc4)[C@H]3SC2)s1 (stereo partly drawn) [Compound 586, 7-[D-(-)-α-Aminophenylacetamido]-3-(5-methylthiazol-2-yl)carbonylthiomethyl-3-cephem-4-carboxylic acid] showed an MIC (S. aureus A9748; A9748, at 10^-^2 dilution) of 63 µg/mL (≈ 125 µM), an MIC (S. aureus A9748; A9748, at 10^-^3 dilution) of 8 µg/mL (≈ 15.9 µM) and an MIC (K. pneumoniae A15130) of 32 µg/mL (≈ 63.4 µM). It also gave an MIC (Ps. aeruginosa A9843A) of over 125 µg/mL, an MIC ([1]; BX16332A9606, at 10^-^2 dilution) of 4 µg/mL (≈ 7.93 µM) and an MIC ([1]; BX16332A9606, at 10^-^3 dilution) of 0.6 µg/mL (≈ 1.19 µM). The MIC (Pr. morganii A15153) was 63 µg/mL (≈ 125 µM), the MIC (D. pneumoniae A9585) was 0.16 µg/mL and the MIC (Ser. marcescens A20019) was over 125 µg/mL. It also gave an MIC (Str. pyogenes A9604) of 0.3 µg/mL, an MIC (E. coli A9675) of 4 µg/mL (≈ 7.93 µM) and an MIC (S. aureus Smith A9537; SMITHA9537, + 50% serum, at 10^-^4 dilution) of over 63 µg/mL. It also gave an MIC (S. aureus Smith A9537; SMITHA9537, at 10^-^4 dilution) of 0.3 µg/mL (≈ 0.595 µM), a concentration at 0.5 h ([2]; blood, 100 mg/kg, mouse, oral, 100 mgm./kg., 0.5 hrs. after administration, read-out: Blood Level) of 34800 ng/mL and a concentration at 1 h ([2]; blood, 100 mg/kg, mouse, oral, 100 mgm./kg., 1 hr. after administration, read-out: Blood Level) of 30700 ng/mL. For the same molecule, the concentration at 2 h ([2]; blood, 100 mg/kg, mouse, oral, 100 mgm./kg., 2 hrs. after administration, read-out: Blood Level) was 13000 ng/mL, the concentration at 3.5 h ([2]; blood, 100 mg/kg, mouse, oral, 100 mgm./kg., 3.5 hrs. after administration, read-out: Blood Level) was 7000 ng/mL and the oral absorption ([2]; in words) was “good oral absorption properties”. The “Blood Level” value ([2]; mouse, oral, 100 mgm./kg., 0.5 hrs. after administration) was 34800 ng/mL, the MIC (Sal. enteritidis A9531) was 0.3 µg/mL (≈ 0.595 µM) and the “activity relative to cephalexin” value [3] was “excellent activity relative to cephalexin”. The MIC (K. pneumoniae A9977) was 4 µg/mL (≈ 7.93 µM), the MIC [4] was 4 µg/mL (≈ 7.93 µM) and the MIC (Pr. mirabilis A9900) was 16 µg/mL (≈ 31.7 µM). It also gave an MIC (E. coli Juhl A15119) of 2 µg/mL (≈ 3.96 µM).
